Earlier results as cited in US10179172B2, “Liquid pharmaceutical formulations for injection comprising yellow 5 or orange G and uses thereof” (EAGLE BIOLOGICS, INC., priority 2013, dated 2019).
“And” between values parts separate entries of the source, which are not always exact repeats. Equal entries are not always repeated.

Legend:
[1] = system: respiratory syncytial virus; details: two Phase III clinical trials, pediatric population
[2] = long-term clinical outcomes

In the case of “palivizumab: humanized mAb directed against an epitope in the A antigenic site of the F protein of respiratory syncytial virus”, the “Reduction of the risk of hospitalization due to respiratory syncytial virus infection” value [1] is listed as 55% and 45%.
In the case of “vedolizumab: mAb being developed by Millennium Pharmaceuticals for ulcerative colitis and Crohn's disease”, the “Patients achieving clinical remission” value [2] is listed as ~60%.
